The test system of the test is A. baumannii. In words: Fold reduction of antibiotic MIC at fixed adjuvant concentration. The note with it: pentamidine or P35 at 50 μg/mL. The format is cell-based. How it is done: Bacterial strains and culture conditions. The following bacterial strains were used within this study; A. baumannii (ATCC 17978), K. pneumoniae (ATCC 43816), K. pneumoniae (ATCC 43816, expressing pGDP2:mcr-1), P. aeruginosa (PA01). Bacterial growth was in cation-adjusted Mueller-Hinton broth (MHB) at 37° C., and inoculum was prepared according to CLSI protocol (CLSI 2015).
Potentiation assays. Checkerboard analyses were conducted with each drug serially diluted at eight concentrations to create an 8×8 matrix. At least two biological replicates were done for each combination, and the means were used for FIC calculation. The FIC for each drug was calculated by dividing the concentration of the drug in the presence of codrug in a combination for a well showing <10% growth by the MIC for that drug alone. The FIC index (FICI) is the sum of the two FICs, with an FIC index≤0.5 deemed synergistic.

The structures appear in SMILES notation.

For the compound `N=C(N)c1ccc(OCCN(CCOc2ccc(C(=N)N)cc2)c2ccccc2)cc1` [Analog P35], the “Average Fold-reduction in MIC, Ampicillin” value (MIC of ampicillin in A. baumannii) stood at 1 fold. The “Average Fold-reduction in MIC, Bacitracin” value (MIC of bacitracin in A. baumannii) is listed as 2 fold. Moreover, where the note is “MIC of chloramphenicol in A. baumannii”, the “Average Fold-reduction in MIC, Chloramphenicol” value worked out at 2 fold. Also, where the note is “MIC of clarithromycin in A. baumannii”, the “Average Fold-reduction in MIC, Clarithromycin” value is recorded as 384 fold. Also, for the setting “MIC of doxycycline in A. baumannii”, the “Average Fold-reduction in MIC, Doxycycline” value is 4 fold. For the same compound, under “MIC of erythromycin in A. baumannii”, the “Average Fold-reduction in MIC, Erythromycin” value is recorded as 32 fold. In addition, the “Average Fold-reduction in MIC, Fusidic Acid” value (MIC of fusidic acid in A. baumannii) worked out at 341.33 fold. Further, the “Average Fold-reduction in MIC, Linezolid” value (MIC of linezolid in A. baumannii) was 8 fold. Moreover, where the note is “MIC of meropenem in A. baumannii”, the “Average Fold-reduction in MIC, Meropenem” value is recorded as 4 fold. Further, the “Average Fold-reduction in MIC, Mupirocin” value (MIC of mupirocin in A. baumannii) came to 4 fold. Further, for the setting “MIC of nafcillin in A. baumannii”, the “Average Fold-reduction in MIC, Nafcillin” value worked out at 1.5 fold. In addition, the “Average Fold-reduction in MIC, Nalidixic Acid” value (MIC of nalidixic acid in A. baumannii) is given as 4 fold. The “Average Fold-reduction in MIC, Novobiocin” value (MIC of novobiocin in A. baumannii) is reported as 512 fold. Also, the “Average Fold-reduction in MIC, Oxacillin” value (MIC of oxacillin in A. baumannii) amounted to 1 fold. Further, the “Average Fold-reduction in MIC, Rifampicin” value (MIC of rifampicin in A. baumannii) is on record as 384 fold. Under “MIC of rifaximin in A. baumannii”, the “Average Fold-reduction in MIC, Rifaximin” value turned out to be 256 fold. Also, the “Average Fold-reduction in MIC, Roxithromycin” value (MIC of roxithromycin in A. baumannii) is listed as 341.33 fold. Besides, the “Average Fold-reduction in MIC, Thiostrepton” value (MIC of thiostrepton in A. baumannii) worked out at 170.67 fold. Further, the “Average Fold-reduction in MIC, Trimethoprim” value (MIC of trimethoprim in A. baumannii) is 5.33 fold. The “Average Fold-reduction in MIC, Vancomycin” value (MIC of vancomycin in A. baumannii) worked out at 4 fold.

These data come from US20250382261A1 (The Broad Institute, Inc., priority 2021, published 2025).
